Type in all cases: functional
The target of experiment [1] is T1, Cdk-related protein kinase 6 (Plasmodium falciparum, UniProt O77239).
T1 sequence (O77239 whole entry): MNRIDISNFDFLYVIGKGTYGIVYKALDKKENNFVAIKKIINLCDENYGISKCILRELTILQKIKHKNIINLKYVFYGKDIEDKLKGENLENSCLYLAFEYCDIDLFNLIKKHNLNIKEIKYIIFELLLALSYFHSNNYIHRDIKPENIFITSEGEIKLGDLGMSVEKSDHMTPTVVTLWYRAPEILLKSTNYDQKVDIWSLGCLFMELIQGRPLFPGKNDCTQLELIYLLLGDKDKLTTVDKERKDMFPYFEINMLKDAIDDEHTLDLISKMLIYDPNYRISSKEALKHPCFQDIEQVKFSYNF
The experiment in a line: Final concentrations were 1.5 uM ATP, 5 mM MnCl2, and 15 ug/ml PK6 in a buffer of 100 mM Tris-HCl (pH 7.5). 50 ug/mL MBP was provided as the substrate; 10 uM staurosporine was used as a control inhibitor. Incubation time was 3 hours and 40 minutes.The catalytic activity of each kinase was considered proportional to ATP consumed, as determined from measurements of residual [ATP] with the luciferase-based reagent Kinase-Glo (Promega) following incubation. Luminescence (proportional to residual [ATP]) was measured on the plate readers FLx800 (BioTek Instruments, Winooski, VT, USA) and MicroBeta2. For orientation: Kinase-Glo reads ATP consumption through a luciferase reaction.

The target of experiment [2] is T2, Putative uncharacterized protein pk7 (Plasmodium falciparum, UniProt O96214).
T2 sequence (O96214 whole entry): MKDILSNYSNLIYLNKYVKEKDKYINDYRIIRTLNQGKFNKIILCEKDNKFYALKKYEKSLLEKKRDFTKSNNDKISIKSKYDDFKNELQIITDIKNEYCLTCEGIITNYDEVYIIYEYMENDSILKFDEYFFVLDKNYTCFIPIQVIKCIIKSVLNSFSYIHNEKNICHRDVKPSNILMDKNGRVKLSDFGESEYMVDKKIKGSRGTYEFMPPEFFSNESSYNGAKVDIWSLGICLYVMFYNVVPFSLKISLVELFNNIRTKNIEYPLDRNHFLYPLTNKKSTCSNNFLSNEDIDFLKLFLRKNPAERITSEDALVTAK
As to the kind of experiment: Final concentrations were 1 uM ATP, 2 mM DTT, 20 mM MgCl2, 2 mM MnCl2, 0.01% BSA, and 6 ug/ml PK7, in a buffer of 20 mM Tris-HCl (pH 7.5). The enzyme itself was the only substrate present (since autophosphorylation occurs); 100 uM 1NA-PP1 was used as a control inhibitor. Incubation time was 3 hours.

Experiment [3] addresses T3, Mitogen-activated protein kinase (Plasmodium falciparum, UniProt Q25917).
T3 sequence (Q25917 whole entry): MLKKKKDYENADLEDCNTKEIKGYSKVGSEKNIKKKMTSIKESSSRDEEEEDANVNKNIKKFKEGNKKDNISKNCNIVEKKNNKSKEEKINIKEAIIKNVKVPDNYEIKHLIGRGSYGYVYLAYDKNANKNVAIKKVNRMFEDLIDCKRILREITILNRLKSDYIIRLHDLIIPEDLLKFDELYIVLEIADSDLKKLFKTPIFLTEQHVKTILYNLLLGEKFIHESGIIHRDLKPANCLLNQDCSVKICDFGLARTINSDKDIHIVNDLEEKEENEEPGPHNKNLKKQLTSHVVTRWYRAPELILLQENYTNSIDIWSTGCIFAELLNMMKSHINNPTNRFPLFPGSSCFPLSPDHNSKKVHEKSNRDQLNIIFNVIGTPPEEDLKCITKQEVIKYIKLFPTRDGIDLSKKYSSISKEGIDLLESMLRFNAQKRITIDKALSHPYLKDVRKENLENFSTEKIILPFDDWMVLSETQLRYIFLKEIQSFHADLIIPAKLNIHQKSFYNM
As to the kind of experiment: Final concentrations were 1 uM ATP, 0.5 mM DTT, 1 mM MgCl2, 0.5 mg/mL BSA, and 10 ug/ml MAP2 in a buffer of 50 mM HEPES (pH 7.0). 0.5 mg/mL histone III-S served as the substrate (13); 100 uM AMP-PNP, an ATP analog, was used as a control inhibitor. Incubation time was 4 hours.

Experiment [4] has as its target Calcium-dependent protein kinase 1 (Plasmodium falciparum, UniProt P62344). The experiment in a line: MMV: CDPK1 Protein kinase inhibition assay using recombinant PfCDPK1, syntide 2 peptide substrate, ATP and KinaseGlo to measure % inhibition at 1 uM MMV box compound.
Experiment [5] concerns the target T4, Calcium-dependent protein kinase 4 (Plasmodium falciparum (isolate 3D7), UniProt Q8IBS5).
T4 sequence (Q8IBS5 whole entry): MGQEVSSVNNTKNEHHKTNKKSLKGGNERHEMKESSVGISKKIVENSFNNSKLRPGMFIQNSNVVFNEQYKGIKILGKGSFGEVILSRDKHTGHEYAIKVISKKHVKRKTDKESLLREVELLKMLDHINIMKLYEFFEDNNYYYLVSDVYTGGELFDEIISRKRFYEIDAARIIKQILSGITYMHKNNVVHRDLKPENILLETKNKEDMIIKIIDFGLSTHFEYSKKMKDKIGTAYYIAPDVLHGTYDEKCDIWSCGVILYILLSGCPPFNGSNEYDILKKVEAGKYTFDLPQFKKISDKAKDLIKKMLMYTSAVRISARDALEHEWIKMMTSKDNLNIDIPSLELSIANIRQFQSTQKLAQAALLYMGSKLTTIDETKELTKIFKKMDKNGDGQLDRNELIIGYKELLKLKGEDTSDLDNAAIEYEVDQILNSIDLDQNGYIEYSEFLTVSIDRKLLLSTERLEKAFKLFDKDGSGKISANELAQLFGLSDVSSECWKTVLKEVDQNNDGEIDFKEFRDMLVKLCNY
As to the kind of experiment: MMV: CDPK4 Protein kinase inhibition assay using recombinant PfCDPK4, syntide2 peptide substrate, ATP and KinaseGlo to measure % inhibition at 1 uM MMV box compound.

In a further experiment the target is T5, Proline--tRNA ligase (Plasmodium falciparum (isolate 3D7), UniProt Q8I5R7).
T5 sequence (Q8I5R7 whole entry): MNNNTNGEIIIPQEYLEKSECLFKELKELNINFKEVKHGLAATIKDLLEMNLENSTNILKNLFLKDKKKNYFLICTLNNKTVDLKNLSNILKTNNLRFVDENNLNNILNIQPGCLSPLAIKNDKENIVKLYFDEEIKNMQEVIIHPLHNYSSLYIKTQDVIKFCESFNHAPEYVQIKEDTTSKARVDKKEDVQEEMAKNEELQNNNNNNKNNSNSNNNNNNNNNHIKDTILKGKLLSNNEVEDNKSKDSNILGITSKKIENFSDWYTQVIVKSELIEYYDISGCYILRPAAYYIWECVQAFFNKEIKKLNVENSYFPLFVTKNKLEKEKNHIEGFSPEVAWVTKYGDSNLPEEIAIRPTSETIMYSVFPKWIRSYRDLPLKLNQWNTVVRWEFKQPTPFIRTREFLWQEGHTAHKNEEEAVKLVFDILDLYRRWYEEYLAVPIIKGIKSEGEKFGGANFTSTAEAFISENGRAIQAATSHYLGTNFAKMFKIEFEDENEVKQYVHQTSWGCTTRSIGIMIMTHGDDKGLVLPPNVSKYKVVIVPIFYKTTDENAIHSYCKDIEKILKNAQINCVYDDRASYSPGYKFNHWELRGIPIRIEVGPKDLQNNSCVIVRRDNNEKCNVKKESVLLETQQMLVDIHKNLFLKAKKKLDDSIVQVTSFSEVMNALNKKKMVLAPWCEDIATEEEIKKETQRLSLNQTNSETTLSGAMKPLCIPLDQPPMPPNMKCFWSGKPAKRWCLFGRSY
The experiment in a line: MMV: ProRS recombinant Plasmodium falciparum Prolyl-tRNA-synthetase, assay with yeast tRNA, ATP, and proline and 3 uM MMV malaria box compound, assay read out with kinase glo as % inhibition.

Another experiment deals with Lysine--tRNA ligase (Plasmodium falciparum (isolate 3D7), UniProt Q8IDJ8). The experiment in a line: MMV: KRS recombinant Plasmodium falciparum Lysyl-tRNA-synthetase, assay with yeast tRNA, ATP, and lysine and 3 uM MMV malaria box compound, assay read out with kinase glo as % inhibition.

One may read the IC50 as the point on the concentration scale where inhibition reaches its midpoint.

SMILES strings stand for the structures.

Lysine--tRNA ligase, sequence (Q8IDJ8 whole entry): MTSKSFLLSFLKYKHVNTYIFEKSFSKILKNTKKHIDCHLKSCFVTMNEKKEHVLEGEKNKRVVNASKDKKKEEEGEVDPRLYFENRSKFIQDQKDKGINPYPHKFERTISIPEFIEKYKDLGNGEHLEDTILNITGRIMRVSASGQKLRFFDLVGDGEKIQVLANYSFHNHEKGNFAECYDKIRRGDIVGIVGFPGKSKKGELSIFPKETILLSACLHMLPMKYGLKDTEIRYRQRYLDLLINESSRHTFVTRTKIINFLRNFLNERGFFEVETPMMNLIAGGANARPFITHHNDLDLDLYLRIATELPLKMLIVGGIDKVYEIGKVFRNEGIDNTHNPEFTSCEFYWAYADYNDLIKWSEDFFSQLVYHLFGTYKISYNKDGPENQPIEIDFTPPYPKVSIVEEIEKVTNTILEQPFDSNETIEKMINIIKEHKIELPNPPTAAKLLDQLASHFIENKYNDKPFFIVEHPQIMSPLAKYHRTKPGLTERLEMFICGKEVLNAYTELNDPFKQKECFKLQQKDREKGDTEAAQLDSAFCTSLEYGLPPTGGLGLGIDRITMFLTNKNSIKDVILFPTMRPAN
Calcium-dependent protein kinase 1, sequence (P62344 whole entry): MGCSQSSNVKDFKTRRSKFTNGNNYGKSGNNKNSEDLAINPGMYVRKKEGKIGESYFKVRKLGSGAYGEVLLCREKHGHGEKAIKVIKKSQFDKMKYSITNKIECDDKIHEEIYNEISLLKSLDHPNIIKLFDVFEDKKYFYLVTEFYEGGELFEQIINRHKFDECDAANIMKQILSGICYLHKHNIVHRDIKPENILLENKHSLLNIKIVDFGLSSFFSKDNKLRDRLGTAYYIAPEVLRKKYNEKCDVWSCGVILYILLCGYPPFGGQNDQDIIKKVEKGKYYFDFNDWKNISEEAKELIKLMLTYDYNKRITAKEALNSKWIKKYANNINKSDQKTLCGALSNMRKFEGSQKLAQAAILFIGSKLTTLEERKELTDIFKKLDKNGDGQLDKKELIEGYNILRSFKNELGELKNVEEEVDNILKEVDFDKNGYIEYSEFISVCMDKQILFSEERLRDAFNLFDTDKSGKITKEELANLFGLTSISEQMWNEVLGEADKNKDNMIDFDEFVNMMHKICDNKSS

Turning to `COc1ccc(-c2c(C)nn3c(N)c(C#N)cnc23)cc1OC`, the half-maximal inhibitory concentration (IC50) in experiment [1] is more than 1000 nM; in experiment [2], more than 1000 nM; in experiment [3], more than 1000 nM; in experiment [4], more than 1000 nM; in experiment [5], more than 1000 nM; on Proline--tRNA ligase, more than 2500 nM. The IC50 at Lysine--tRNA ligase is more than 2500 nM.
For the compound `CSC1=NC(=Nc2c(C)cccc2C)C2(CCC(C(C)(C)C)CC2)N1c1ccc(Cl)cc1` (stereo not drawn), the IC50 in experiment [1] was more than 1000 nM; in experiment [2], more than 1000 nM; in experiment [3], more than 1000 nM; in experiment [4], more than 1000 nM; in experiment [5], more than 1000 nM; on Proline--tRNA ligase it was more than 2500 nM. Further, on Lysine--tRNA ligase, the IC50 was more than 2500 nM.
Take `COc1ccc(-c2cc3c(SCC(=O)Nc4cc(C(F)(F)F)ccc4Cl)nccn3n2)cc1`: the IC50 in experiment [1] is more than 1000 nM; in experiment [2], more than 1000 nM; in experiment [3] it was more than 1000 nM; in experiment [4] it was more than 1000 nM; in experiment [5], more than 1000 nM; at Proline--tRNA ligase, more than 2500 nM. Also, at Lysine--tRNA ligase, the IC50 was more than 2500 nM.
On to `Cc1cc(Nc2ccc3ccccc3c2)n2ncnc2n1`, for which the IC50 in experiment [1] was more than 1000 nM; in experiment [2], more than 1000 nM; in experiment [3], more than 1000 nM; in experiment [4], more than 1000 nM; in experiment [5] it was more than 1000 nM; at Proline--tRNA ligase, more than 2500 nM. Besides, the IC50 at Lysine--tRNA ligase is more than 2500 nM.
Regarding `O=C(O)C1Cc2c([nH]c3ccccc23)C(c2ccc(Cl)cc2Cl)N1` (stereo not drawn), the IC50 in experiment [1] is more than 1000 nM; in experiment [2] it was more than 1000 nM; in experiment [3], more than 1000 nM; in experiment [4], more than 1000 nM; in experiment [5] it was more than 1000 nM; at Proline--tRNA ligase, more than 2500 nM. The IC50 at Lysine--tRNA ligase was more than 2500 nM.
In the case of `COc1cccc(NC(=O)[C@H](C(C)C)n2c(=O)[nH]c3ccccc3c2=O)c1`, the IC50 is more than 1000 nM in experiment [1]; more than 1000 nM in experiment [2]; more than 1000 nM in experiment [3]; more than 1000 nM in experiment [4]; more than 1000 nM in experiment [5]; more than 2500 nM on Proline--tRNA ligase. The IC50 at Lysine--tRNA ligase was more than 2500 nM.
`CC(C)(C)c1ccc(O)c(CNC2CCCCC2)c1`: the IC50 in experiment [1] is more than 1000 nM; in experiment [2], more than 1000 nM; in experiment [3], more than 1000 nM; in experiment [4], more than 1000 nM; in experiment [5] it was more than 1000 nM; on Proline--tRNA ligase it was more than 2500 nM. For the same compound, the IC50 on Lysine--tRNA ligase was more than 2500 nM.
With `COc1ccc(C2=C(c3ccc(OC)cc3)C3(c4ccccc4)C(=O)C2(c2ccccc2)C2C(=O)N(c4ccc(C)cc4)C(=O)C23)cc1` (stereo not drawn), the IC50 was more than 1000 nM in experiment [1]; more than 1000 nM in experiment [2]; more than 1000 nM in experiment [3]; more than 1000 nM in experiment [4]; more than 1000 nM in experiment [5]; more than 2500 nM at Proline--tRNA ligase. Also, the IC50 on Lysine--tRNA ligase is more than 2500 nM.
Turning to `CCOC(=O)c1c(NC(=O)c2ccccc2)sc2c(O)c(CN(CC)CC)ccc12`, the IC50 in experiment [1] was more than 1000 nM; in experiment [2], more than 1000 nM; in experiment [3], more than 1000 nM; in experiment [4], more than 1000 nM; in experiment [5], more than 1000 nM; at Proline--tRNA ligase, more than 2500 nM. Further, the IC50 on Lysine--tRNA ligase is more than 2500 nM.
`COc1ccc(C=C2SC(=N)N(c3ccccc3OC)C2=O)cc1`: the IC50 in experiment [1] is more than 1000 nM; in experiment [2] it was more than 1000 nM; in experiment [3] it was more than 1000 nM; in experiment [4], more than 1000 nM; in experiment [5] it was more than 1000 nM; on Proline--tRNA ligase, more than 2500 nM. In addition, on Lysine--tRNA ligase, the IC50 is more than 2500 nM.
`COc1ccc(NC(=O)C2c3ccccc3C(=O)N(CC(C)C)C2c2cccs2)cc1Cl` (stereo not drawn): the IC50 was more than 1000 nM in experiment [1]; more than 1000 nM in experiment [2]; more than 1000 nM in experiment [3]; more than 1000 nM in experiment [4]; more than 1000 nM in experiment [5]; more than 2500 nM at Proline--tRNA ligase. Also, on Lysine--tRNA ligase, the IC50 was more than 2500 nM.
For the compound `CCOC(=O)c1c(C)n(-c2ccc(Cl)cc2)c2ccc(OC(=O)C=Cc3ccccc3)cc12`, the IC50 in experiment [1] was more than 1000 nM; in experiment [2] it was more than 1000 nM; in experiment [3], more than 1000 nM; in experiment [4], more than 1000 nM; in experiment [5] it was more than 1000 nM; at Proline--tRNA ligase, more than 2500 nM. The IC50 on Lysine--tRNA ligase is more than 2500 nM.
With `COc1ccccc1CNC(=O)CCn1c(=O)[nH]c2ccccc2c1=O`, the IC50 was more than 1000 nM in experiment [1]; more than 1000 nM in experiment [2]; more than 1000 nM in experiment [3]; more than 1000 nM in experiment [4]; more than 1000 nM in experiment [5]; more than 2500 nM on Proline--tRNA ligase. The IC50 on Lysine--tRNA ligase was more than 2500 nM.
As to `Oc1ccccc1CNCC12CC3CC(CC(C3)C1)C2`, the IC50 in experiment [1] was more than 1000 nM; in experiment [2] it was more than 1000 nM; in experiment [3], more than 1000 nM; in experiment [4] it was more than 1000 nM; in experiment [5], more than 1000 nM; at Proline--tRNA ligase, more than 2500 nM. Moreover, the IC50 at Lysine--tRNA ligase is more than 2500 nM.
